The IC50 is the point on the concentration scale where inhibition reaches its midpoint.

From US12685735B2 (Foghorn Therapeutics Inc., priority 2020, dated 2026) come the findings set out here.

Like-named read-outs stand apart in the source and are kept apart here.

For one assay, the target named is BRM (Homo sapiens, UniProt P51531). As to the kind of experiment: ATPase catalytic activity assay of BRM (ADP-Glo). To be noted: for IC50: read-out: BRM IC50 (μM)*. It counts as biochemical. In a few lines: (§1)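 Two room-temperature incubations follow the reaction: 40 min to eliminate unused ATP, then 60 min to turn ADP into ATP driving luciferase light output. Activity is read as luminescence proportional to ADP formed.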
For orientation: ADP-Glo first removes unused ATP, then detects ADP through luciferase.

Another assay concerns the target BRG-1 (Homo sapiens, UniProt P51532). As to the kind of experiment: ATPase catalytic activity assay of BRG-1 (ADP-Glo). It counts as biochemical. To be noted: ATPase catalytic activity, ADP-Glo; for IC50: read-out: BRG1 IC50 (μM)*; for Emax: read-out: BRG1 Max % Inhibition. In outline: as §1

Chain of BRM (P51531 whole entry): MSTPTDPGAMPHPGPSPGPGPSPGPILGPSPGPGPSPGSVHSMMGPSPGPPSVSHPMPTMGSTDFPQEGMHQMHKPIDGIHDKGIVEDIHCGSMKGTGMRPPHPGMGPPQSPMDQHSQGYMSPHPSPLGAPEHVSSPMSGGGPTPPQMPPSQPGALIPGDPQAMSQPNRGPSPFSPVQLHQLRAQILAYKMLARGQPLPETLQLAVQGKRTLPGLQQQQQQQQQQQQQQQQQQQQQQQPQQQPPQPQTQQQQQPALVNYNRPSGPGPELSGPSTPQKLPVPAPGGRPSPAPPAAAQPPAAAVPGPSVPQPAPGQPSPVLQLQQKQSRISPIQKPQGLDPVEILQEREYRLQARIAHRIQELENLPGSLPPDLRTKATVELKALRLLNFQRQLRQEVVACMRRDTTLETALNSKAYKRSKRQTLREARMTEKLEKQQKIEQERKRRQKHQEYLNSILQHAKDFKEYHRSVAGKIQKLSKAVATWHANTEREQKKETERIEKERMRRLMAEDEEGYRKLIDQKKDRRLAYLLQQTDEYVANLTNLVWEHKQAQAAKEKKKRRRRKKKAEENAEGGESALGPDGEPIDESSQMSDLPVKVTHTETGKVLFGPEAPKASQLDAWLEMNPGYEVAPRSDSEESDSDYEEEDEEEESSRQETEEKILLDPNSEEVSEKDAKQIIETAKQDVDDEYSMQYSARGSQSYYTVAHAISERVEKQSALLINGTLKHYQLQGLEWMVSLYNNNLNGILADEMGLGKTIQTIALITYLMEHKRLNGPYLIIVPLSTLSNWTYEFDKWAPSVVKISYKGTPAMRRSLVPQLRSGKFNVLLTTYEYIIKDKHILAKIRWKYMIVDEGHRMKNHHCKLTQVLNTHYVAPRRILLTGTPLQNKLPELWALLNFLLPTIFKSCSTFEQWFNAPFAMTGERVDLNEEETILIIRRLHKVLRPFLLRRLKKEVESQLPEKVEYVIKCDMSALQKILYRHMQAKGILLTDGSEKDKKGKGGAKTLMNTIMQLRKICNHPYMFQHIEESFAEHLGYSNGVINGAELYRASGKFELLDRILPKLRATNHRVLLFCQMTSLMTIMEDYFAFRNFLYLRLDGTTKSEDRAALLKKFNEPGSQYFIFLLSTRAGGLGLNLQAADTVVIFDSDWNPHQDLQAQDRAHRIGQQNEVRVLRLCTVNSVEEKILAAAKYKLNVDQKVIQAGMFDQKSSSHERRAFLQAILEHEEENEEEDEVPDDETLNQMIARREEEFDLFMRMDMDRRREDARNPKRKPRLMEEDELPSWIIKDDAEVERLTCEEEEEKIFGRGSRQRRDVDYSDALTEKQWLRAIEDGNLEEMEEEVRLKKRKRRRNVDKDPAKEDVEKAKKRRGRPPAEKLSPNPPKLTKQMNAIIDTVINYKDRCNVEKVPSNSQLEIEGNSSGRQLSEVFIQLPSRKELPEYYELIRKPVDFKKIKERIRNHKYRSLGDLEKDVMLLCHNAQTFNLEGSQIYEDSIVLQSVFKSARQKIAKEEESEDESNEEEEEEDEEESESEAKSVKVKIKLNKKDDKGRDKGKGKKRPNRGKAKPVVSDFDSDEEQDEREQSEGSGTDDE
Chain of BRG-1 (P51532 whole entry): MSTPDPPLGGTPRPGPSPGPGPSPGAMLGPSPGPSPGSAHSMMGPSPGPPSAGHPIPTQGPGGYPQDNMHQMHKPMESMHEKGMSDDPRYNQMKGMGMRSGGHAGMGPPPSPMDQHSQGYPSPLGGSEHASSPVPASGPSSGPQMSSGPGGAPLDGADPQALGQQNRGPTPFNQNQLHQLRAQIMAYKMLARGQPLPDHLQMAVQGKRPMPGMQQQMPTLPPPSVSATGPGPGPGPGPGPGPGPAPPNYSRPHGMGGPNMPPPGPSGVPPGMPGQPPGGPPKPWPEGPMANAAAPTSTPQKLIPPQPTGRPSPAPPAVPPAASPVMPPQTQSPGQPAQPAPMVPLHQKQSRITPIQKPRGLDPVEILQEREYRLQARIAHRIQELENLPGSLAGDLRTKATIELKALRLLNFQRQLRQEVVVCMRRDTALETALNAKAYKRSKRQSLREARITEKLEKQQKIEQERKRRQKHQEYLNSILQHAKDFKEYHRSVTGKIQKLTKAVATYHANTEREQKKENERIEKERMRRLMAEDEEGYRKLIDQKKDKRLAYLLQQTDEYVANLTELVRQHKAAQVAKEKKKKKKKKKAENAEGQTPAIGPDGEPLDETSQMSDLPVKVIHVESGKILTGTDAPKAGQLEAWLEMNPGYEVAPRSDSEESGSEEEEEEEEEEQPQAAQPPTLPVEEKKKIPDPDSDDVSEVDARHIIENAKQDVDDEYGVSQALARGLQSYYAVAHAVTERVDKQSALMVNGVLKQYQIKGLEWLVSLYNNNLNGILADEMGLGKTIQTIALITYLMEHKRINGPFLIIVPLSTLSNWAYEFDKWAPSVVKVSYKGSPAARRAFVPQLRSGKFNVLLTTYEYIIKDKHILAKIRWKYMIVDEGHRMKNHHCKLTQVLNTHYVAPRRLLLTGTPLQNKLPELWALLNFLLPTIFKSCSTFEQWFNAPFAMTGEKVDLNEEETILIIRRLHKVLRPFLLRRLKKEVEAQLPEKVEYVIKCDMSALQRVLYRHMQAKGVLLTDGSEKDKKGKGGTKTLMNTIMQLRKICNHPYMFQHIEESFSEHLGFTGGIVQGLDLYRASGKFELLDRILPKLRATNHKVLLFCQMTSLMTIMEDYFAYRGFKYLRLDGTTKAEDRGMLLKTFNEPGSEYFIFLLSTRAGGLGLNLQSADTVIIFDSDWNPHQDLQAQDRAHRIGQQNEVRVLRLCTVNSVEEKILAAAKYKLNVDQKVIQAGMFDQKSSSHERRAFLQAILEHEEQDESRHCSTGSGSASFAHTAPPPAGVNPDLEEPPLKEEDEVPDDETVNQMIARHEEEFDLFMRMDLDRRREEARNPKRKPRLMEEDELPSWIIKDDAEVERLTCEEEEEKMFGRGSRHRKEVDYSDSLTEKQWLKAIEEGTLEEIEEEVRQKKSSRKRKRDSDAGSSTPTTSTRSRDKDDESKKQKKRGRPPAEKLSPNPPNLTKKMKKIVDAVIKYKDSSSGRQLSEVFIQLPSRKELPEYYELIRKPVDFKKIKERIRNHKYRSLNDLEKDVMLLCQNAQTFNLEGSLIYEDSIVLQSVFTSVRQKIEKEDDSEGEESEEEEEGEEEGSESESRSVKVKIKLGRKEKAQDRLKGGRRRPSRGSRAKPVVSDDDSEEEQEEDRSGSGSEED

As for `CC(C)(CN)c1cccc(C(=O)NCC(=O)Nc2nc(-c3cccc(-c4ccnc(C(F)(F)F)c4)c3)cs2)c1` [Compound 58, 3-(1-amino-2-methylpropan-2-yl)-N-(2-oxo-2-((4-(3-(2-(trifluoromethyl)pyridin-4-yl)phenyl)thiazol-2-yl)amino)ethyl)benzamide], on BRM, the “BRM Max % Inhibition” value is above 80% and the IC50 lay in the range of 0.1 to 1 µM. In addition, on BRG-1, the IC50 fell in the range of 1 to 5 µM and the Emax is above 60%.

Turning to `C[C@@H]1CN(c2cccc(-c3csc(NC(=O)CNC(=O)c4ccc5c(c4)[C@](F)(C(F)F)CCO5)n3)c2)C[C@H](C)O1` [Compound 274, (S)-4-(difluoromethyl)-N-(2-((4-(3-((cis)-2,6-dimethylmorpholino)phenyl)thiazol-2-yl)amino)-2-oxoethyl)-4-fluorochromane-6-carboxamide], on BRM, the “BRM Max % Inhibition” value is listed as above 95% and the IC50 was below 0.1 µM. At BRG-1, the IC50 was below 0.1 µM and the Emax is above 95%.

Turning to `COc1cccc(-c2csc(NC(=O)CNC(=O)c3ccc4c(c3)[C@](C)(C#N)COC4)n2)c1F` [Compound 402, (R)-4-cyano-N-(2-((4-(2-fluoro-3-methoxyphenyl)thiazol-2-yl)amino)-2-oxoethyl)-4-methylisochromane-6-carboxamide], at BRM, the “BRM Max % Inhibition” value is above 95% and the IC50 is below 0.1 µM. Also, at BRG-1, the 50% inhibitory concentration (IC50) is below 0.1 µM and the Emax was above 95%.

As to `C[C@@H]1CN(c2cccc(-c3csc(NC(=O)CNC(=O)c4cccc([C@@H]5COC[C@H]5O)c4)n3)n2)C[C@H](C)O1` [Compound 160, N-(2-((4-(6-((cis)-2,6-dimethylmorpholino)pyridin-2-yl)thiazol-2-yl)amino)-2-oxoethyl)-3-((3R,4S)-4-hydroxytetrahydrofuran-3-yl)benzamide], at BRM, the “BRM Max % Inhibition” value is listed as above 80% and the half-maximal inhibitory concentration (IC50) is 0.1 to 1 µM. In addition, at BRG-1, the IC50 was above 5 µM and the Emax is below 30%.

On to `COc1cccc(-c2csc(NC(=O)C3(NC(=O)c4ccc5c(c4)[C@](C)(C#N)COC5)CC3(F)F)n2)c1` (stereo partly drawn) [Compound 336, (R)-4-cyano-N-(2,2-difluoro-1-((4-(3-methoxyphenyl)thiazol-2-yl)carbamoyl)cyclopropyl)-4-methylisochromane-6-carboxamide], for which, at BRM, the “BRM Max % Inhibition” value was above 85% and the IC50 fell in the range of 0.1 to 1 µM. At BRG-1, the half-maximal inhibitory concentration (IC50) was 1 to 5 µM and the Emax was above 85%.

As for `Cn1ccc2ccc(-c3csc(NC(=O)CNC(=O)c4ccc5c(c4)[C@@](C)(C#N)CCO5)n3)cc2c1=O` [Compound 433, (S)-4-cyano-4-methyl-N-(2-((4-(2-methyl-1-oxo-1,2-dihydroisoquinolin-7-yl)thiazol-2-yl)amino)-2-oxoethyl)chromane-6-carboxamide], at BRM (30 nM BRM, 400 μM ATP), the “BRM Max % Inhibition” value is above 95% and the half-maximal inhibitory concentration (IC50) was below 0.1 µM. Also, on BRG-1 (30 nM BRG-1, 400 μM ATP), the IC50 lay in the range of 0.1 to 1 µM and the Emax was above 95%.

Take `C[C@@H]1CN(c2cccc(-c3csc(NC(=O)CNC(=O)c4ccnc(C(C)(C)C)c4)n3)c2)C[C@H](C)O1` [Compound 205, 2-(tert-butyl)-N-(2-((4-(3-((cis)-2,6-dimethylmorpholino)phenyl)thiazol-2-yl)amino)-2-oxoethyl)isonicotinamide]: on BRM, the “BRM Max % Inhibition” value is recorded as above 95% and the IC50 lay within 0.1 to 1 µM. Further, on BRG-1, the IC50 was 1 to 5 µM and the Emax was above 70%.

Consider `C[C@@H]1CN(c2cccc(-c3csc(NC(=O)CNC(=O)c4ccc5c(c4)[C@@](F)(C(F)F)CCO5)n3)c2)C[C@H](C)O1` [Compound 275, (R)-4-(difluoromethyl)-N-(2-((4-(3-((cis)-2,6-dimethylmorpholino)phenyl)thiazol-2-yl)amino)-2-oxoethyl)-4-fluorochromane-6-carboxamide], for which, at BRM, the “BRM Max % Inhibition” value is recorded as above 95% and the half-inhibitory concentration (IC50) was below 0.1 µM. Also, at BRG-1, the IC50 was 0.1 to 1 µM and the Emax was above 95%.

For `C[C@@H]1CN(c2cccc(-c3csc(NC(=O)CNC(=O)c4cccc([C@H]5COC[C@H]5O)c4)n3)c2)C[C@H](C)O1` (relative stereo) [Compound 424, N-(2-((4-(3-((cis)-2,6-dimethylmorpholino)phenyl)thiazol-2-yl)amino)-2-oxoethyl)-3-((cis)-4-hydroxytetrahydrofuran-3-yl)benzamide], on BRM (30 nM BRM, 400 μM ATP), the “BRM Max % Inhibition” value is reported as above 80% and the half-inhibitory concentration (IC50) fell in the range of 0.1 to 1 µM. At BRG-1 (30 nM BRG-1, 400 μM ATP), the concentration for half-maximal inhibition (IC50) was above 5 µM and the Emax is above 80%.

For `CC1(C#N)CCOc2ccc(C(=O)NCC(=O)Nc3nc(-c4cccc(C5CC5)n4)cs3)cc21` (stereo in doubt) [Compound 439, (S)-4-cyano-N-(2-((4-(6-cyclopropylpyridin-2-yl)thiazol-2-yl)amino)-2-oxoethyl)-4-methylchromane-6-carboxamide], on BRM (30 nM BRM, 400 μM ATP), the “BRM Max % Inhibition” value is above 95% and the concentration for half-maximal inhibition (IC50) was 0.1 to 1 µM. Moreover, at BRG-1 (30 nM BRG-1, 400 μM ATP), the concentration for half-maximal inhibition (IC50) lay within 1 to 5 µM and the Emax is above 95%.

For `CC1(C#N)CCOc2ccc(C(=O)NCC(=O)Nc3nc(-c4cccc(C(F)F)c4)cs3)cc21` (stereo in doubt) [Compound 442, (S)-4-cyano-N-(2-((4-(3-(difluoromethyl)phenyl)thiazol-2-yl)amino)-2-oxoethyl)-4-methylchromane-6-carboxamide], at BRM (30 nM BRM, 400 μM ATP), the “BRM Max % Inhibition” value is above 95% and the concentration for half-maximal inhibition (IC50) was below 0.1 µM. Further, on BRG-1 (30 nM BRG-1, 400 μM ATP), the half-maximal inhibitory concentration (IC50) lay in the range of 0.1 to 1 µM and the Emax was above 95%.

Consider `COC1CN(c2cccc(-c3csc(NC(=O)CNC(=O)c4ccc5c(c4)[C@](C)(C#N)COC5)n3)c2)C1` [Compound 390, (R)-4-cyano-N-(2-((4-(3-(3-methoxyazetidin-1-yl)phenyl)thiazol-2-yl)amino)-2-oxoethyl)-4-methylisochromane-6-carboxamide], for which, at BRM, the “BRM Max % Inhibition” value is above 95% and the IC50 was below 0.1 µM. At BRG-1, the IC50 was below 0.1 µM and the Emax is above 95%.

For the compound `CC1(C#N)CCOc2ccc(C(=O)NCC(=O)Nc3nc(-c4cccc([C@H]5CC5(F)F)c4)cs3)cc21` (stereo in doubt) [Compound 428, (S)-4-cyano-N-(2-((4-(3-((R)-2,2-difluorocyclopropyl)phenyl)thiazol-2-yl)amino)-2-oxoethyl)-4-methylchromane-6-carboxamide], at BRM (30 nM BRM, 400 μM ATP), the “BRM Max % Inhibition” value is on record as above 95% and the IC50 is below 0.1 µM. For the same compound, at BRG-1 (30 nM BRG-1, 400 μM ATP), the IC50 was 0.1 to 1 µM and the Emax was above 95%.

On to `C[C@@H]1CN(c2cccc(-c3csc(NC(=O)CNC(=O)c4ccc5c(c4)C(C)(C#N)COC5)n3)n2)C[C@H](C)O1` (stereo in doubt) [Compound 421, (S)-4-cyano-N-(2-((4-(6-((cis)-2,6-dimethylmorpholino)pyridin-2-yl)thiazol-2-yl)amino)-2-oxoethyl)-4-methylisochromane-6-carboxamide], for which, at BRM (30 nM BRM, 400 μM ATP), the “BRM Max % Inhibition” value is above 80% and the IC50 was in the range of 1 to 5 µM. For the same compound, at BRG-1 (30 nM BRG-1, 400 μM ATP), the IC50 was above 5 µM and the Emax was above 80%.

Regarding `C[C@@H]1CN(c2cccc(-c3csc(NC(=O)CNC(=O)c4cncc(C(C)(C)C)c4)n3)c2)C[C@H](C)O1` [Compound 443, 5-(tert-butyl)-N-(2-((4-(3-((cis)-2,6-dimethylmorpholino)phenyl)thiazol-2-yl)amino)-2-oxoethyl)nicotinamide], on BRM (30 nM BRM, 400 μM ATP), the “BRM Max % Inhibition” value is reported as above 95% and the IC50 was below 0.1 µM. On BRG-1 (30 nM BRG-1, 400 μM ATP), the half-maximal inhibitory concentration (IC50) is 0.1 to 1 µM and the Emax was above 95%.

For the compound `C[C@@H]1CN(c2cccc(-c3csc(NC(=O)CNC(=O)c4cnc5c(c4)[C@@](C)(C#N)CC5)n3)c2)C[C@H](C)O1` [Compound 253, (S)-5-cyano-N-(2-((4-(3-((cis)-2,6-dimethylmorpholino)phenyl)thiazol-2-yl)amino)-2-oxoethyl)-5-methyl-6,7-dihydro-5H-cyclopenta[b]pyridine-3-carboxamide], at BRM, the “BRM Max % Inhibition” value is recorded as above 90% and the concentration for half-maximal inhibition (IC50) was 1 to 5 µM. At BRG-1, the IC50 was 1 to 5 µM and the Emax was above 50%.

For `C[C@@H]1CN(c2cccc(-c3csc(NC(=O)CNC(=O)c4cnc5c(c4)[C@](C)(CO)CC5)n3)c2)C[C@H](C)O1` [Compound 143, (R)-N-(2-((4-(3-((cis)-2,6-dimethylmorpholino)phenyl)thiazol-2-yl)amino)-2-oxoethyl)-5-(hydroxymethyl)-5-methyl-6,7-dihydro-5H-cyclopenta[b]pyridine-3-carboxamide], at BRM, the “BRM Max % Inhibition” value was above 80% and the IC50 lay within 0.1 to 1 µM. Moreover, at BRG-1, the half-inhibitory concentration (IC50) was above 5 µM and the Emax was above 60%.

With `CN1CCc2ccc(-c3csc(NC(=O)CNC(=O)c4ccc5c(c4)C(C)(CO)CC5)n3)cc2C1=O` (stereo in doubt) [Compound 176, (R)-3-(hydroxymethyl)-3-methyl-N-(2-((4-(2-methyl-1-oxo-1,2,3,4-tetrahydroisoquinolin-7-yl)thiazol-2-yl)amino)-2-oxoethyl)-2,3-dihydro-1H-indene-5-carboxamide], at BRM, the “BRM Max % Inhibition” value is above 95% and the IC50 fell in the range of 0.1 to 1 µM. Further, on BRG-1, the half-inhibitory concentration (IC50) was 0.1 to 1 µM and the Emax was above 80%.

Consider `CC1CCN1c1cccc(-c2csc(NC(=O)CNC(=O)c3ccc4c(c3)[C@](C)(C#N)COC4)n2)c1` (stereo partly drawn) [Compound 351, (4R)-4-cyano-4-methyl-N-(2-((4-(3-(2-methylazetidin-1-yl)phenyl)thiazol-2-yl)amino)-2-oxoethyl)isochromane-6-carboxamide], for which, on BRM, the “BRM Max % Inhibition” value is above 95% and the concentration for half-maximal inhibition (IC50) was below 0.1 µM. On BRG-1, the IC50 is below 0.1 µM and the Emax is above 95%.
